In article PMC9023744, “The Cytochrome P450 OxyA from the Kistamicin Biosynthesis Cyclization Cascade is Highly Sensitive to Oxidative Damage” (Frontiers in Chemistry, 2022):

Legend:
[1] = target: T1, OxyAkis ([Actinomadura] parvosata, UniProt A0A1V0AG67); test: UV-visible difference spectroscopy titration, one-site model; format: binding
T1 construct: gene BKM31_54160; pET28a, His-tagged, expressed in E. coli Arctic Express; Ni-NTA, anion exchange, size exclusion

[2] = target: T2, OxyCkis; test: as above; format: binding; conditions: 50 mM Tris-HCl pH 8, 30°C; 2.5 µM enzyme
T2 construct: gene OxyC; recombinant, expressed in E. coli Arctic Express; Ni-NTA, anion exchange, size exclusion

T1 sequence (A0A1V0AG67 entry or part of it): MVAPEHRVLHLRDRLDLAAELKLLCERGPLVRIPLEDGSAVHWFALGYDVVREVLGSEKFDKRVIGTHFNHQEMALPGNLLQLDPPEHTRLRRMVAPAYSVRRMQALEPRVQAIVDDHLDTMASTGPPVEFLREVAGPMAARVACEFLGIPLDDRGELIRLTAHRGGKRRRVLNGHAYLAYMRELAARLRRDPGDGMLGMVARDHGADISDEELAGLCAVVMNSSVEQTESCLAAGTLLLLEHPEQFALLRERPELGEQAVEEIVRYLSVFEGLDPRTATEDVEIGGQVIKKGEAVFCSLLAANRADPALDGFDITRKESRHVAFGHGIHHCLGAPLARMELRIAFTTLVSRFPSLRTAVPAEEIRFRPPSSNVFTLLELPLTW

For `c1c[nH]cn1` [imidazole], the Kd [1] was 120 µM and the Kd [2] was 84 µM.
